Assay results published in patent US20030176356A1, “Endothelin antagonists and endothelin-converting enzyme inhibitors for the treatment of glaucoma” (University of North Texas Health Science Center, priority 2001, published 2003).
“Also recorded” adds a separate entry of the source. No end group written: not given here.

Columns and labels:
[1] = tested on: human non-pigmented ciliary epithelial (HNPE) cells; experiment: Nitric oxide release from HNPE cells (nitrite, Griess colorimetric assay); type: cell-based; settings: 100 nM ET-1, 24 hours; control 14.4±1.8 μM nitrite
Protocol: The effect of endothelin-1 (ET-1) and PD-142893, an ETA/B receptor antagonist, on nitric oxide (“NO”) release from human non-pigmented ciliary epithelial (HNPE) cells are illustrated in FIG. 6. The NO released into the culture media from HNPE cells grown in 24-well plates and treated with ET-1 (100 nM) for 24 hours was converted to nitrites. The total amount of nitrites was measured using the Griess colorimetric assay. HNPE cells were pre-treated with PD-142893 (1 μM) for 30 minutes and then 100 nM ET-1 was also added and incubated for 24 hours. The values in FIG. 6 represent the mean±SEM of a ratio between the nitrite produced under experimental conditions divided by the nitrite produced in control cells, which corresponded to 14.4±1.8 μM and controls were expressed as 100% (n=3). Statistical significance of the nitrite released from ET-1 (100 nM) treatment versus the control are denoted with an asterisk (“*”). Statistical significance of the nitrite released from PD-142893+ET-1 (100 nM) treatment versus that of ET-1 (100 nM) are denoted as a double asterisk (“**”) The statistical differenced were determined by one-way ANOVA and Student-Newman-Keuls multiple comparison test (p<0.05). Thus, addition of ET-1 increased the nitrite levels nearly 2-fold when compared to control cells or cells treated with PD-142893.

rat optic nerve = experiment: Anterograde axonal transport in rat optic nerve after intravitreal injection (35S-methionine pulse label); type: in vivo; settings: for effect of ET-1 on anterograde axonal transport: intravitreal 2 nmol
Excerpt: Newly synthesized proteins undergoing anterograde axonal transport in the optic nerve were pulse-labeled in either the presence or absence of endothelin as modified from previously published methods (van Biesen et al., 1995). Modifications to previously published methods were minimal and involved the replacement of a distilled water vehicle for resuspension of radiolabeled precursors with either HEPES buffered ET-1 or HEPES vehicle buffer alone. ^35S-Methionine (Easytag EXPRESS PROTEIN LABELING MIX, Dupont-NEN Life Sciences, Boston, Mass.) was lyophilized and resuspended in either vehicle alone (10 mM HEPES, pH 7.4, Sigma Chemical Co., St Louis, Mo.) or in vehicle containing 500 μM ET-1 (Bachem, Belmont, Calif.). Rats were anesthetized by Metofane inhalation, and 0.8 mCi (4 μl) of radiolabel in vehicle either plus or minus ET-1 (final dose 2 mmols), was injected into the vitreous of the left eye using a 30 gauge needle attached to a Hamilton syringe (microliter #710, 22s gauge, Hamilton Co., Reno, Nev.) by polyethylene tubing (PE-20, Clay Adams Brand, Becton Dickson and Co., Sparks, Md.) (van Biesen et al., 1995). In one experiment, ET-3 was substituted for ET-1, using the same methods (2 mmol dose, 28 hour ISI, N=7 for controls, N=7 for experimentals). […] One minute after injection, all retinas appeared normal in color. (Based upon these initial observations, further observations of the retinas were not performed). Information on the dose-related effect(s) of intravitreal ET-1 in this species (i.e. rat) were unavailable, and physiological/pathological concentrations of endothelin in the optic nerve head's microenvironment are generally unknown. Therefore, dose selection was made on the basis of a small pilot study, using these methods and measuring the total pulse-labeled protein axonally transported into the rat optic nerve. (An N of 3 rats in every group was used only for the pilot study, 4 hour ISI, data not shown). […] However, significant effects on axonal transport (4 hour ISI) were only seen in the pilot study for the 2 mmol dose. […] Possible effect(s) on non-assayed ocular tissues were not considered in dose selection, as data on these were unavailable for either acute or chronic intravitreal ET-1 administration, in rats.
This technique was employed to determine if endothelin-1 also affected the axonal transport in the optic nerve of rats, which is severely compromised in glaucoma. Harvest and preparation of pulse-labeled optic nerves in animals, wherein animals were anesthetized with metofane at specified times after injection and sacrificed by decapitation. Injection-sacrifice intervals were selected based upon the published characterizations of anterograde axonal transport in rat optic nerve for specific marker proteins associated with specific classes of axonally transported materials (Table 4) (Elluru et al., 1995; Garner and Lasek, 1981; Garner and Lasek, 1982; Jahn et al., 1985). Seven vehicle-treated animals and seven endothelin-treated animals were sacrificed at each of the specified times (4, 24, 28, 32, 36 hours and 4, 21 days). Optic nerves were removed, flash frozen with crushed dry ice, and sectioned frozen. Nerves were sectioned to aid complete homogenization, and to provide additional data for future studies. The frozen sections (2 mm in length) were numbered as segments 1-4 (from proximal to distal), and glass-on glass homogenized in 100 μlof BUST sample buffer (2% β-mercaptoethanol, 8M urea, 1% SDS, 0.1M Tris, 0.02% phenol red, pH 7.4). A 25% aliquot of each homogenized segment was counted in a liquid scintillation counter, and counts were corrected for decay, quench, and counting efficiency.

NOS2 = NOS2 mRNA expression in HNPE cells by RT-PCR; type: cell-based, human; settings: 100 nM ET-1, 24 hours, qualitative, vs non-treated controls
Excerpt: Utilizing the powerful technique of RT-PCR on mRNA transcripts of NOS2, the amplified products were separated on an agarose gel and compared with untreated control RT_PCR products. […] RT-PCR products of the β-actin housekeeping gene were also amplified and visualized on an agarose gel as a mRNA isolation control.

NOS-2 = NOS-2 mRNA expression in retina after intravitreal injection, RT-PCR; type: in vivo, Brown Norway rats; settings: intravitreal 2 mmoles, 4 hours or 24 hours post-injection
Protocol: Elevated NOS-2 expression and peroxynitrite labeling are observed in glaucomatous retina and optic nerve head and are considered to be neurotoxic, which promote retinal ganglion cell death. ET-1 was injected in the left eye (OS) of rats while the right eye served as an contralateral control. Saline was also injected in some rats.

## ET-1: active 21 amino acid residue endothelin peptide (Bachem) (CSCSSLMDKECVYFCHLDIIW; ends and bridges not checked; cysteine pairing not given here; UniProt P05305 53-73, looked up)
[1]
  increase of nitrite levels compared to control cells: ~2 fold
Rat optic nerve; 0.3, 0.4, and 2 mmol doses intravitreal, 4 hour ISI, significant only for the 2 mmol dose
  total pulse-labeled protein axonally transported into the rat optic nerve (pilot study): trend of increasingly enhanced axonal transport
Rat optic nerve; ISI 4 hr, fast component, MBO/small tubulovesicles
  effect of ET-1 on anterograde axonal transport: significant enhancement; also recorded: increased
Rat optic nerve; ISI 24 hr, fast component, MBO/small tubulovesicles
  effect of ET-1 on anterograde axonal transport: significant enhancement; also recorded: increased
Rat optic nerve; ISI 28 hr, fast component, MBO/mitochondria
  effect of ET-1 on anterograde axonal transport: significant reduction; also recorded: decreased
Rat optic nerve; ISI 32 hr, fast component, MBO/mitochondria
  effect of ET-1 on anterograde axonal transport: significant reduction; also recorded: decreased
Rat optic nerve; ISI 36 hr, fast component, MBO/mitochondria
  effect of ET-1 on anterograde axonal transport: significant reduction; also recorded: decreased
Rat optic nerve; ISI 4 days, SCa, cytoplasmic matrix proteins
  effect of ET-1 on anterograde axonal transport: significant reduction; also recorded: decreased
Rat optic nerve; ISI 21 days, SCb, cytoskeletal proteins
  effect of ET-1 on anterograde axonal transport: significant reduction; also recorded: decreased
NOS2
  NOS2 mRNA levels: elevated mRNA levels of NOS2
NOS-2
  mRNA expression of inducible nitric oxide synthase-2 (NOS-2) in the retina: causes the mRNA expression of inducible nitric oxide synthase-2 (NOS-2)
